Laboratory results as given in ChEMBL document CHEMBL1201862, “PubChem BioAssay data set” (2004).
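Dose response: 5 concentrations. Exposure: 48 h. Format: 96-well plates. Endpoint: linear interpolation; highest concentration if not reached. At the GI50, growth is halved.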 Activity calls are given as the source filed them. No stated cut-off is given here; in the data, active = GI50 up to about 1.1 µM and inactive = higher.

Legend:
Assay in all cases: NCI tumour cell line growth inhibition, 48 h
MDA-N = tested on: MDA-N
HT-29 = tested on: HT-29
MDA-MB-435 = tested on: MDA-MB-435
HCT-15 = tested on: HCT-15
OVCAR-3 = tested on: OVCAR-3
HCC 2998 = tested on: HCC 2998
MCF7 = tested on: MCF7
HCT-116 = tested on: HCT-116
Hs-578T = tested on: Hs-578T
Malme-3M = tested on: Malme-3M
MDA-MB-231 = tested on: MDA-MB-231
NCI/ADR-RES = tested on: NCI/ADR-RES
HL-60 = tested on: HL-60
PC-3 = tested on: PC-3
SR = tested on: SR
K562 = tested on: K562
SK-MEL-28 = tested on: SK-MEL-28
SNB-75 = tested on: SNB-75
NCI-H460 = tested on: NCI-H460
EKVX = tested on: EKVX
UACC-62 = tested on: UACC-62
T47D = tested on: T47D
TK-10 = tested on: TK-10
DU-145 = tested on: DU-145
RXF 393 = tested on: RXF 393
UO-31 = tested on: UO-31
SN12C = tested on: SN12C
MOLT-4 = tested on: MOLT-4
CCRF-CEM = tested on: CCRF-CEM
SK-MEL-5 = tested on: SK-MEL-5
NCI-H522 = tested on: NCI-H522
OVCAR-4 = tested on: OVCAR-4
BT-549 = tested on: BT-549
A549 = tested on: A549
UACC-257 = tested on: UACC-257
NCI-H226 = tested on: NCI-H226
NCI-H23 = tested on: NCI-H23
A498 = tested on: A498
COLO 205 = tested on: COLO 205
SK-MEL-2 = tested on: SK-MEL-2
ACHN = tested on: ACHN
RPMI-8226 = tested on: RPMI-8226
U-251 = tested on: U-251
M14 = tested on: M14
LOX IMVI = tested on: LOX IMVI
SNB-19 = tested on: SNB-19
SW-620 = tested on: SW-620
OVCAR-8 = tested on: OVCAR-8
HOP-92 = tested on: HOP-92
SF-295 = tested on: SF-295
HOP-62 = tested on: HOP-62
786-0 = tested on: 786-0
SK-OV-3 = tested on: SK-OV-3
OVCAR-5 = tested on: OVCAR-5
KM12 = tested on: KM12
SF-268 = tested on: SF-268
CAKI-1 = tested on: CAKI-1
IGROV-1 = tested on: IGROV-1
SF-539 = tested on: SF-539

CC(C)=C1C(=O)C[C@@]2(C)C[C@H]3OC3(C)CC/C=C(/C)CCC12 (stereo partly specified)
GI50 (MDA-N): > 100 µM (inactive) | GI50 (HT-29): 53.7 µM (inactive) | GI50 (MDA-MB-435): 64 µM (inactive) | GI50 (HCT-15): 75.9 µM | GI50 (OVCAR-3): 56.8 µM (inactive) | GI50 (HCC 2998): > 100 µM (inactive) | GI50 (MCF7): 71.9 µM (inactive) | GI50 (HCT-116): 65 µM (inactive) | GI50 (Hs-578T): > 100 µM (inactive) | GI50 (Malme-3M): > 100 µM (inactive) | GI50 (MDA-MB-231): > 100 µM (inactive) | GI50 (NCI/ADR-RES): 18.3 µM (inactive) | GI50 (HL-60): 21.8 µM (inactive) | GI50 (PC-3): 25.2 µM (inactive) | GI50 (SR): 70.6 µM (inactive) | GI50 (K562): 50.6 µM (inactive) | GI50 (SK-MEL-28): > 100 µM (inactive) | GI50 (SNB-75): 80 µM (inactive) | GI50 (NCI-H460): 62.4 µM (inactive) | GI50 (EKVX): 48.2 µM (inactive) | GI50 (UACC-62): 50.5 µM (inactive) | GI50 (T47D): 49.4 µM (inactive) | GI50 (TK-10): > 100 µM (inactive) | GI50 (DU-145): > 100 µM (inactive) | GI50 (RXF 393): > 10 µM (inactive) | GI50 (UO-31): 68.2 µM (inactive) | GI50 (SN12C): > 100 µM (inactive) | GI50 (MOLT-4): 35.4 µM (inactive) | GI50 (CCRF-CEM): 58.7 µM (inactive) | GI50 (SK-MEL-5): > 100 µM (inactive) | GI50 (NCI-H522): 27.8 µM (inactive) | GI50 (OVCAR-4): 90.8 µM (inactive) | GI50 (BT-549): 99.5 µM (inactive) | GI50 (A549): 75.2 µM (inactive) | GI50 (UACC-257): 50.4 µM (inactive) | GI50 (NCI-H226): 69.7 µM (inactive) | GI50 (NCI-H23): 91.8 µM (inactive)

CN(C)S(=O)(=O)c1ccc2c(c1)/C(=C1/Nc3ccccc3C1=O)C(=O)N2
GI50 (A498): 29.8 µM (inactive) | GI50 (MDA-N): > 100 µM (inactive) | GI50 (HT-29): > 100 µM (inactive) | GI50 (COLO 205): > 100 µM (inactive) | GI50 (MDA-MB-435): > 100 µM (inactive) | GI50 (HCT-15): 87.9 µM | GI50 (OVCAR-3): 93.1 µM (inactive) | GI50 (HCC 2998): > 100 µM (inactive) | GI50 (MCF7): 24.8 µM (inactive) | GI50 (HCT-116): 23.1 µM (inactive) | GI50 (SK-MEL-2): 18.4 µM (inactive) | GI50 (Hs-578T): 14.4 µM (inactive) | GI50 (Malme-3M): > 100 µM (inactive) | GI50 (MDA-MB-231): 17 µM (inactive) | GI50 (NCI/ADR-RES): 71.9 µM (inactive) | GI50 (ACHN): 12.1 µM (inactive) | GI50 (RPMI-8226): > 100 µM (inactive) | GI50 (U-251): 10.6 µM (inactive) | GI50 (M14): > 100 µM (inactive) | GI50 (LOX IMVI): 41.6 µM (inactive) | GI50 (PC-3): 23 µM (inactive) | GI50 (SR): 14.7 µM (inactive) | GI50 (K562): 34.8 µM (inactive) | GI50 (SK-MEL-28): > 100 µM (inactive) | GI50 (SNB-75): 0.0617 µM (active) | GI50 (NCI-H460): 24.7 µM (inactive) | GI50 (SNB-19): 15.7 µM (inactive) | GI50 (EKVX): 24 µM (inactive) | GI50 (UACC-62): 14.7 µM (inactive) | GI50 (T47D): 24.8 µM (inactive) | GI50 (TK-10): 19.5 µM (inactive) | GI50 (DU-145): 24.9 µM (inactive) | GI50 (SW-620): > 100 µM (inactive) | GI50 (RXF 393): 1.71 µM (inactive) | GI50 (UO-31): 44.3 µM (inactive) | GI50 (SN12C): 38 µM (inactive) | GI50 (OVCAR-8): 32.5 µM (inactive) | GI50 (MOLT-4): 14.1 µM (inactive) | GI50 (HOP-92): 16.8 µM (inactive) | GI50 (CCRF-CEM): > 100 µM (inactive) | GI50 (SK-MEL-5): > 100 µM (inactive) | GI50 (NCI-H522): 25.5 µM (inactive) | GI50 (OVCAR-4): > 100 µM (inactive) | GI50 (SF-295): 12.9 µM (inactive) | GI50 (BT-549): 15 µM (inactive) | GI50 (HOP-62): 15.7 µM (inactive) | GI50 (786-0): 16 µM (inactive) | GI50 (SK-OV-3): 13.9 µM (inactive) | GI50 (OVCAR-5): > 100 µM (inactive) | GI50 (A549): > 100 µM (inactive) | GI50 (UACC-257): > 100 µM (inactive) | GI50 (NCI-H226): 25.2 µM (inactive) | GI50 (KM12): > 100 µM (inactive) | GI50 (NCI-H23): 16.1 µM (inactive) | GI50 (SF-268): 14.7 µM (inactive) | GI50 (CAKI-1): > 100 µM (inactive) | GI50 (IGROV-1): 11.9 µM (inactive)

COC(O)C(=O)c1ccc2c(c1)CC1(C2)Cc2cc3c(cc2C1=O)CCC3 (stereo unspecified)
GI50 (A498): 18.7 µM (inactive) | GI50 (MDA-N): 19.9 µM (inactive) | GI50 (HT-29): 20.1 µM (inactive) | GI50 (COLO 205): 20 µM (inactive) | GI50 (MDA-MB-435): 17.1 µM (inactive) | GI50 (HCT-15): 22.2 µM | GI50 (OVCAR-3): 18.9 µM (inactive) | GI50 (HCC 2998): 19.1 µM (inactive) | GI50 (MCF7): 17.3 µM (inactive) | GI50 (HCT-116): 18.9 µM (inactive) | GI50 (SK-MEL-2): 23.2 µM (inactive) | GI50 (Hs-578T): 20.5 µM (inactive) | GI50 (Malme-3M): 16.2 µM (inactive) | GI50 (MDA-MB-231): 27.7 µM (inactive) | GI50 (NCI/ADR-RES): 42.6 µM (inactive) | GI50 (ACHN): 17 µM (inactive) | GI50 (RPMI-8226): 12.3 µM (inactive) | GI50 (U-251): 18.4 µM (inactive) | GI50 (HL-60): 9.33 µM (inactive) | GI50 (M14): 19.3 µM (inactive) | GI50 (LOX IMVI): 2.69 µM (inactive) | GI50 (PC-3): 14.9 µM (inactive) | GI50 (SR): > 10 µM (inactive) | GI50 (K562): 2.94 µM (inactive) | GI50 (SK-MEL-28): 15.1 µM (inactive) | GI50 (SNB-75): 17.9 µM (inactive) | GI50 (NCI-H460): 27.9 µM (inactive) | GI50 (SNB-19): 18.2 µM (inactive) | GI50 (EKVX): 19.2 µM (inactive) | GI50 (UACC-62): 17.9 µM (inactive) | GI50 (T47D): 19.2 µM (inactive) | GI50 (TK-10): 21.6 µM (inactive) | GI50 (DU-145): 17.1 µM (inactive) | GI50 (SW-620): 14.5 µM (inactive) | GI50 (UO-31): 16.9 µM (inactive) | GI50 (SN12C): 15.3 µM (inactive) | GI50 (OVCAR-8): > 10 µM (inactive) | GI50 (MOLT-4): 15 µM (inactive) | GI50 (CCRF-CEM): 11.9 µM (inactive) | GI50 (SF-539): 18.1 µM (inactive) | GI50 (SK-MEL-5): 16 µM (inactive) | GI50 (NCI-H522): 19 µM (inactive) | GI50 (OVCAR-4): 16.1 µM (inactive) | GI50 (SF-295): 23.7 µM (inactive) | GI50 (BT-549): 17.4 µM (inactive) | GI50 (HOP-62): 19.5 µM (inactive) | GI50 (786-0): 17.6 µM (inactive) | GI50 (SK-OV-3): 16.7 µM (inactive) | GI50 (OVCAR-5): 22 µM (inactive) | GI50 (A549): 20.2 µM (inactive) | GI50 (UACC-257): 21.4 µM (inactive) | GI50 (NCI-H226): 19.5 µM (inactive) | GI50 (KM12): 20.9 µM (inactive) | GI50 (NCI-H23): 24.5 µM (inactive) | GI50 (SF-268): 19.4 µM (inactive) | GI50 (CAKI-1): 16.9 µM (inactive) | GI50 (IGROV-1): 16.1 µM (inactive)
